{"source": "paper PMC3838870", "about": "(Journal of inorganic biochemistry, 2013)", "key": {"[1]": {"system": "chloroquine-resistant (7G8) Plasmodium falciparum", "settings": "read-out: Growth inhibition efficacy (IC50), 7G8 P. falciparum; chloroquine-resistant 7G8, mean ± SD (n = 6); previously reported; cited from earlier work"}, "[2]": {"system": "chloroquine-sensitive (3D7) Plasmodium falciparum", "test": "Parasite growth inhibition, [3H]-hypoxanthine incorporation, 3D7", "format": "cell-based"}, "[3]": {"system": "synchronized chloroquine-sensitive P. falciparum (3D7)", "test": "Stage-specific parasite growth", "format": "cell-based, Plasmodium falciparum", "settings": "chelator 7.5 μM, 3D7 synchronized at ring-stage"}, "[4]": {"system": "human erythrocytes", "test": "Chelator-induced erythrocyte hemolysis", "format": "cell-based", "settings": "control 0.0175± 0.0005"}, "[5]": {"system": "non-parasitized human erythrocytes", "test": "Effect of chelators on erythrocyte shape", "format": "cell-based", "settings": "2.5–15 μM chelator, 48 h, Giemsa staining"}, "[6]": {"test": "Chelator-induced erythrocyte hemolysis", "format": "cell-based, human", "settings": "human, human erythrocyte suspension, pH 7.4"}, "[7]": {"system": "chloroquine-sensitive (3D7) Plasmodium falciparum", "settings": "read-out: IC50, 3D7 malaria strain; cited from earlier work"}}, "note": "Like-named read-outs stand apart in the source and are kept apart here."}
{"smiles": "O=C(NN=Cc1c(O)ccc2ccccc12)c1ccncc1", "note": "[compound 311, 2-hydroxy-1-naphthylaldehyde isonicotinoyl hydrazone]", "values": [{"measurement": "IC50", "setting": "[1]", "result": "4.46 ± 0.3", "unit": "µM"}, {"measurement": "IC50", "setting": "[2]; read-out: Growth inhibition efficacy (IC50), 3D7 P. falciparum, chloroquine-sensitive 3D7, 48 h culture, mean ± SD (n = 6)", "result": "4.45 ± 1.7", "unit": "µM"}, {"measurement": "% Inhibition, rings, 24 hour culture", "setting": "[3]", "result": "99 ± 8.4", "unit": "%"}, {"measurement": "Supernatant hemoglobin, % MCHC (hemolysis)", "setting": "[4]; chelator 0.5 μM", "result": "0.0193±0.0005", "unit": "% MCHC"}, {"measurement": "Supernatant hemoglobin, % MCHC (hemolysis)", "setting": "[4]; chelator 1 μM", "result": "0.0195±0.0010", "unit": "% MCHC"}, {"measurement": "Supernatant hemoglobin, % MCHC (hemolysis)", "setting": "[4]; chelator 1.5 μM", "result": "0.0200±0.0006", "unit": "% MCHC"}, {"measurement": "Supernatant hemoglobin, % MCHC (hemolysis)", "setting": "[4]; chelator 2 μM", "result": "0.0203±0.0005", "unit": "% MCHC"}, {"measurement": "Supernatant hemoglobin, % MCHC (hemolysis)", "setting": "[4]; chelator 3 μM", "result": "0.0197±0.0005", "unit": "% MCHC"}, {"measurement": "Effect on erythrocyte shape", "setting": "[5]", "result": "no apparent effect on erythrocyte shape"}]}
{"smiles": "Cc1ncc(CO)c(/C=N/NC(=O)c2ccncc2)c1O", "note": "[PIH, pyridoxal isonicotinoyl hydrazone]", "values": [{"measurement": "hemolysis at 10 μM", "setting": "[6]", "result": "0.0195 ± 0.0004", "unit": "%"}, {"measurement": "hemolysis at 15 μM", "setting": "[6]", "result": "0.0188 ± 0.0003", "unit": "%"}, {"measurement": "hemolysis at 20 μM", "setting": "[6]", "result": "0.019 ± 0.0006", "unit": "%"}, {"measurement": "hemolysis at 25 μM", "setting": "[6]", "result": "0.0193 ± 0.0004", "unit": "%"}, {"measurement": "hemolysis at 30 μM", "setting": "[6]", "result": "0.0192 ± 0.0008", "unit": "%"}, {"measurement": "IC50", "setting": "[7]", "result": 50, "unit": "µM"}]}
{"smiles": "CC(=O)N(O)CCCCCNC(=O)CCC(=O)N(O)CCCCCNC(=O)CCC(=O)N(O)CCCCCN", "note": "[DFO, desferrioxamine]", "values": [{"measurement": "IC50", "setting": "[1]", "result": 18.5, "unit": "µM"}, {"measurement": "IC50", "setting": "[2]; Plasmodium falciparum, 3D7, 48 h, read-out: Growth inhibition efficacy (IC50), 3D7 P. falciparum", "result": "23.4 ± 3.4", "unit": "µM"}, {"measurement": "IC50", "setting": "[2]; Plasmodium falciparum, 3D7, 48 h, read-out: Growth inhibition efficacy (IC50), 3D7 P. falciparum, chloroquine-sensitive 3D7, 48 h culture, mean ± SD (n = 6)", "result": 23.5, "unit": "µM"}, {"measurement": "hemolysis at 10 μM", "setting": "[6]", "result": "0.0193 ± 0.0005", "unit": "%"}, {"measurement": "hemolysis at 20 μM", "setting": "[6]", "result": "0.0182 ± 0.0005", "unit": "%"}, {"measurement": "hemolysis at 30 μM", "setting": "[6]", "result": "0.0186 ± 0.0008", "unit": "%"}, {"measurement": "hemolysis at 45 μM", "setting": "[6]", "result": "0.0192 ± 0.0001", "unit": "%"}, {"measurement": "hemolysis at 60 μM", "setting": "[6]", "result": "0.0182 ± 0.0002", "unit": "%"}]}
